Assay results: publication PMC9645375, “Pattern enrichment analysis for phage selection of stapled peptide ligands” (Chemical Science, 2022)
Numbered stars: 1 amine (or outer) side, 2 acyl side, 3 side chain; on linkers, the order of the positions; unused ones are H or OH. Bridge positions count the residues as written; N and C are the ends. Peptide text beside a SMILES is read from it. X1 = O=C(C[*:1])NCCCCCNC(=O)C[*:2]

Experiments:
[1] = molecular target: interaction between SARS-CoV-2 spike RBD and ACE2 (Severe acute respiratory syndrome coronavirus 2, UniProt P0DTC2); test: biochemical; format: binding; conditions: n = 3
[2] = CD measurement of helical content; format: physicochemical
[3] = molecular target: T1, HDM2 (human double minute 2) (Homo sapiens, UniProt Q00987); test: Fluorescence polarisation competition binding assay against FAM-ATSP-3848; conditions: for inhibition of FAM-ATSP-3848 binding to HDM2 (in words): fluorescence polarisation, 100 nM HDM2, 10 nM FAM-ATSP-3848
T1 construct: His-tag; made in house
T1 sequence (Q00987 whole entry): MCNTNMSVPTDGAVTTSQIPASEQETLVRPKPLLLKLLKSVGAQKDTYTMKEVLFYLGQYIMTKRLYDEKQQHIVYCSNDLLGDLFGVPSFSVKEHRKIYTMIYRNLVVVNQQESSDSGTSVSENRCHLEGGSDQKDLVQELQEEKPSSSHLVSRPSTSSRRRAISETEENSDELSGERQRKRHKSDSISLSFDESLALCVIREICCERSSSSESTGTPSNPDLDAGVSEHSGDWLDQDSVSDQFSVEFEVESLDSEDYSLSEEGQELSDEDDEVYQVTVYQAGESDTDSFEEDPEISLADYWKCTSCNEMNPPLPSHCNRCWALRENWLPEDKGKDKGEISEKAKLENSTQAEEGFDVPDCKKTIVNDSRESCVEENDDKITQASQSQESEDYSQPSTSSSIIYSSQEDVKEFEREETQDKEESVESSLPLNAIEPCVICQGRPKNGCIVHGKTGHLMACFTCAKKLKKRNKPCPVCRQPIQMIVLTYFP
Protocol: Fig. 4 Position–amino acid pattern enrichment analysis of the HDM2-R3 pool. (a) Pattern enrichment score calculation. For both sequence data (FASTQ), the abundance of each position–amino acid pattern was determined. Enrichment values were calculated as the ratio of abundance in the selected sample to that in the control sample. (b) Venn diagram showing pattern coverage (white, whole space of three-window patterns; blue, patterns found in Amp-R3 dataset; red, patterns found in HDM2-R3 dataset). (c) Scattering plot indicating the abundance of control (x-axis) and HDM2-R3 selected sample (y-axis). Red circles are patterns with log2(ratio) values greater than 8. (d) Position–amino acid patterns ranked in the top 20. (e) WebLogo depicting enriched sequences determined from enriched patterns with log2(ratio) values greater than 8. (f) Sequences and helical wheel diagrams of HDM2-p13 and HDM2-opt peptides. Highly enriched residues are coloured red. (g) Fluorescence polarisation assay for competitive inhibition. Peptides (50 nM to 50 μM) were mixed with 100 nM HDM2 and 10 nM FAM-ATSP-3848. […] Error bar represents SD (n = 3).
Competition binding assay
The peptides (50 nM–50 µM) was mixed with 100 nM of HDM2 and 10 nM of FAM-AT P S-3848 in HBS buffer (10 mM HEPES, 150 mM NaCl, pH 7.5). The fluorescence polarization was measured by ARVO MX plate […]
values of peptide inhibitors were calculated by nonlinear regression analysis using Prism (GraphPad Software).
Pull-down competition binding assay
Recombinant SARS-CoV-2 Spike RBD His Biotin Protein (R&D Systems, BT10500) at 4 µg/mL concentration in HBS buffer was incubated with 3 mg/mL of DynaBeads M-280 (ThermoFisher) for 2 hours at 4 °C. […]
After one hour incubation at room temperature, the beads were rinsed three times with HBS-T ( 2 0 0 µL/well). […] The chemiluminescent bands were detected using LuminoGraphI (ATTO) with ImageSaver6 software. From the band intensities, IC50 values of peptide inhibitors were calculated by nonlinear regression analysis using Prism (GraphPad Software).

In the case of `CC(C)C[C@@H]1NC(=O)[C@@H](NC(=O)[C@@H](N)[C@@H](C)O)CSCC(=O)NCCCCCNC(=O)CSC[C@@H](C(=O)N[C@@H](Cc2ccccc2)C(N)=O)NC(=O)[C@H](CCC(=O)O)NC(=O)[C@H](Cc2ccccc2)NC(=O)[C@H](Cc2c[nH]c3ccccc23)NC(=O)[C@H](CO)NC(=O)[C@H](CO)NC1=O` [CoV-2-p2] (H-TCLSSWFECF-NH2; linker 2-9 via X1), the IC50 [1] is reported as 12.9 ± 4.9 µM, the “conformational preference (in words)” value [2] is reported as “prefer a helical conformation” and the helical content ([2]; pH 7.5) is reported as 45%.
With `CC(C)C[C@@H]1NC(=O)[C@H](Cc2ccc(O)cc2)NC(=O)[C@H](CC(=O)O)NC(=O)[C@H](Cc2ccccc2)NC(=O)CNC(=O)[C@H](Cc2c[nH]c3ccccc23)NC(=O)[C@@H](NC(=O)[C@@H](N)[C@@H](C)O)CSCC(=O)NCCCCCNC(=O)CSC[C@@H](C(=O)N[C@@H](Cc2c[nH]c3ccccc23)C(N)=O)NC1=O` [CoV-2-p5] (H-TCWGFDYLCW-NH2; linker 2-9 via X1) the IC50 [1] was 3.8 ± 3.3 µM and the helical content ([2]; pH 7.5) was 12%.
With `CC(C)C[C@H](NC(=O)[C@@H]1CSCC(=O)NCCCCCNC(=O)CSC[C@H](NC(=O)[C@@H]2CCCN2)C(=O)N[C@@H](Cc2ccccc2)C(=O)N[C@@H](Cc2ccc(O)cc2)C(=O)N[C@@H](CC(=O)O)C(=O)N[C@@H](Cc2ccc(O)cc2)C(=O)N[C@@H](Cc2c[nH]c3ccccc23)C(=O)N[C@@H](CCC(N)=O)C(=O)N1)C(N)=O` [HDM2-opt] (H-PCFYDYWQCL-NH2; linker 2-9 via X1) the “inhibition of FAM-ATSP-3848 binding to HDM2 (in words)” value [3] was “exhibited effective inhibition”.
In the case of `CC(C)C[C@H](NC(=O)[C@@H]1CSCC(=O)NCCCCCNC(=O)CSC[C@H](NC(=O)[C@H](C)N)C(=O)N[C@@H](Cc2ccccc2)C(=O)N[C@@H](CC(=O)O)C(=O)N[C@@H](CCC(=O)O)C(=O)N[C@@H](Cc2ccc(O)cc2)C(=O)N[C@@H](Cc2c[nH]c3ccccc23)C(=O)N[C@@H](CCC(N)=O)C(=O)N1)C(N)=O` [HDM2-p13] (H-ACFDEYWQCL-NH2; linker 2-9 via X1), the IC50 ([3]; competitive inhibition FP, peptides 50 nM to 50 μM, 100 nM HDM2, 10 nM FAM-ATSP-3848, HBS buffer (10 mM HEPES, 150 mM NaCl, pH 7.5), SD, n = 3) is reported as 4.8 ± 0.6 µM, the “inhibition of FAM-ATSP-3848 binding to HDM2 (in words)” value [3] is reported as “inhibited the high-affinity binding” and the helical content ([2]; CD, 25% TFE, 30 µM peptide, HBS buffer (10 mM HEPES, 150 mM NaCl, pH 7.5), calculated by BeStSel web server) is reported as 43%.
